Source: patent publication US20250011777A1, “DELIVERY OF ANITSENSE OLIGOMERS BY MIRROR IMAGE PEPTIDES” (SAREPTA THERAPEUTICS, INC., priority 2021, published 2025)

What was measured:
[1] = after administration; cited from earlier work
[2] = test system: HeLa 654 cells (EGFP gene interrupted by a mutated intron of ß-globin, IVS2-654); assay: EGFP 654 assay (corrective splicing by PMO IVS2-654, flow cytometry); type: cell-based; conditions: PMO-CPP conjugates, 22 h, read-out: EC50 in concentration-response EGFP assay
Procedure: Purified constructs were then tested using an activity-based readout in which nuclear delivery results in fluorescence. Briefly, HeLa cells stably transfected with an Enhanced Green Fluorescent Protein (EGFP) gene interrupted by a mutated intron of ß-globin (IVS2-654) produce a non-fluorescent EGFP protein. Successful delivery of PMO IVS2-654 to the nucleus results in corrective splicing and EGFP synthesis.
The amount of PMO delivered to the nucleus is therefore correlated with EGFP fluorescence, quantified by flow cytometry. Activity is reported as mean fluorescence intensity (MFI) relative to PMO alone. This activity assay provides indirect information on how much active PMO is delivered to the nucleus. Relative efficiency of a PMO-CPP could be characterized by comparing activity to internal concentration, as discussed later (FIG. 2). […]
For individual peptide testing, PMO-peptides were dissolved in PBS without Ca2+ or Mg2+ at a concentration of 1 mM (determined by UV) before being diluted in MEM. […] Gates were applied to the data to ensure that cells that were positive for propidium iodide or had forward/side scatter readings that were sufficiently different from the main cell population were excluded. […]
Analysis was conducted using Graphpad Prism 7 and FlowJo. For each sample, the mean fluorescence intensity (MFI) and the number of gated cells was measured. […]

Substance	time within which the majority of the drug is cleared renally [1] [h]	EC50 [2] [µM]
Eteplirsen	≤ 24	–
RXRRBRRXRRBR [BPEP]	–	~3
